These results are taken from ChEMBL document CHEMBL6087478, “Chain Length Does Matter: Development of High-Potency QS-21-Based Vaccine Adjuvants” (J Med Chem, 2025).

SMILES strings stand for the structures. Activity calls are given as the source filed them. No cut-off for these calls is given here.

Data set [1] deals with Mus musculus. As to the kind of experiment: Adjuvant activity in OVA-immunized female C57BL/6 mouse assessed as increase in serum IgG anti-OVA antibody response at 50 ug, IM co-administered with OVA antigen on day 0,7 and 14 and measured on day 21 by ELISA method. Type of data set: functional, organism-based. The conditions noted are these: dose 50.0 µg, time 21.0 day. (In general: An ELISA detects its analyte on a solid surface through an enzyme-linked reagent.)

In data set [2] the test system is Mus musculus. As to the kind of experiment: Adjuvant activity in OVA-immunized female C57BL/6 mouse assessed as induction of antigen-specific Th1 immune responses by measuring increase in anti-OVA specific IgG1 in serum at 50 ug, IM co-administered with OVA antigen on day 0,7 and 14 and measured on day 21 by ELISA method. Type of data set: functional, organism-based. The settings on record: dose 50.0 µg, time 21.0 day.

Data set [3] relates to Mus musculus. As to the kind of experiment: Adjuvant activity in OVA-immunized female C57BL/6 mouse assessed as induction of antigen-specific Th1 immune responses by measuring increase in anti-OVA specific IgG2b in serum at 50 ug, IM co-administered with OVA antigen on day 0,7 and 14 and measured on day 21 by ELISA method. Type of data set: functional, organism-based. The settings on record: dose 50.0 µg, time 21.0 day.

Data set [4] relates to Mus musculus. As to the kind of experiment: Adjuvant activity in OVA-immunized female C57BL/6 mouse assessed as induction of antigen-specific Th2 immune responses by measuring increase in anti-OVA specific IgG1 in serum at 50 ug, IM co-administered with OVA antigen on day 0,7 and 14 and measured on day 21 by ELISA method. Type of data set: functional, organism-based. The conditions noted are these: dose 50.0 µg, time 21.0 day.

Data set [5] deals with Mus musculus. As to the kind of experiment: Adjuvant activity in OVA-immunized female C57BL/6 mouse assessed as induction of antigen-specific Th2 immune responses by measuring increase in anti-OVA specific IgG2b in serum at 50 ug, IM co-administered with OVA antigen on day 0,7 and 14 and measured on day 21 by ELISA method. The settings on record: dose 50.0 µg, time 21.0 day. Type of data set: functional, organism-based.

The test system of data set [6] is Mus musculus. As to the kind of experiment: Adjuvant activity in OVA-immunized female C57BL/6 mouse assessed as increase in serum IgG anti-OVA antibody response at 5 ug, IM co-administered with OVA antigen on day 0,7 and 14 and measured on day 14,28 and 42 by ELISA method. Type of data set: functional, organism-based. The settings on record: dose 5.0 µg, time 42.0 day.

Data set [7] concerns Mus musculus. As to the kind of experiment: Adjuvant activity in OVA-immunized female C57BL/6 mouse assessed as increase in serum IgG1 at low dose administered as IM dose co-administered with OVA antigen on day 0,7 and 14 and measured on day 14,28 and 42 by ELISA method. Type of data set: functional, organism-based. The settings on record: time 42.0 day.
In data set [8] the test system is Mus musculus. As to the kind of experiment: Adjuvant activity in OVA-immunized female C57BL/6 mouse assessed as increase in serum IgG2b at low dose administered as IM dose co-administered with OVA antigen on day 0,7 and 14 and measured on day 14,28 and 42 by ELISA method. Type of data set: functional, organism-based. The conditions noted are these: time 42.0 day.

A short description of data set [9]: Toxicity in C57BL/6 mouse assessed as effect on body weight change at 50 ug, IM in presence of KLH measured upto 7 days. The settings on record: in vivo, 168 h, dose 50 µg, time < 7 day.
The test system of data set [10] is Mus musculus. As to the kind of experiment: Potency index ratio of QS21 to test compound for adjuvant activity in KLH-immunized female C57BL/6 mouse assessed as increase in serum IgG anti-KLH antibody titer at 50 ug, IM co-administered with KLH-antigen on day 0,7 and 14 and measured on day 14,28 and 42 by ELISA method. Type of data set: functional. The settings on record: dose 50 µg, time 42 day.

Data set [11] is described as follows: Toxicity in C57BL/6 mouse assessed as effect on body weight change at 50 ug, IM in presence of OVA-antigen measured upto 7 days. The settings on record: in vivo, 168 h, dose 50 µg, time < 7 day.
The test system of data set [12] is Mus musculus. As to the kind of experiment: Adjuvant activity in OVA-immunized female C57BL/6 mouse assessed as increase in IgG antibody titer at low dose administered as IM co-administered with OVA antigen on day 0,7 and 14 and measured on day 14,28,42 by ELISA method. Type of data set: functional, organism-based. The conditions noted are these: time 42.0 day.

Data set [13] has as its system Mus musculus. As to the kind of experiment: Adjuvant activity in OVA-immunized female C57BL/6 mouse assessed as increase in IgG2b antibody titer at low dose administered as IM co-administered with OVA antigen on day 0,7 and 14 and measured on day 14,28,42 by ELISA method. Type of data set: functional, organism-based. The settings on record: time 42.0 day.
The nature of data set [14]: Toxicity in C57BL/6 mouse assessed as effect on body weight change at 20 ug, sc in presence of OVA-antigen measured upto 7 days. Type of data set: organism-based. The conditions noted are these: in vivo, 168 h, dose 20 µg, time < 7 day.
The subject of data set [15] is Mus musculus. As to the kind of experiment: Adjuvant activity in OVA-immunized female C57BL/6 mouse assessed as increase IgG antibody titer at 20 ug, sc co-administered with OVA antigen on day 0,7 and 14 and measured on day 14,28,42 by ELISA method. The conditions noted are these: dose 20.0 µg, time 42.0 day. Type of data set: functional, organism-based.
The test system of data set [16] is Mus musculus. As to the kind of experiment: Adjuvant activity in OVA-immunized female C57BL/6 mouse assessed as increase IgG2b antibody titer at 20 ug, sc co-administered with OVA antigen on day 0,7 and 14 and measured on day 14,28,42 by ELISA method. Type of data set: functional, organism-based. The conditions noted are these: dose 20.0 µg, time 42.0 day.
The test system of data set [17] is Mus musculus. As to the kind of experiment: Adjuvant activity in KLH-immunized female C57BL/6 mouse assessed as increase in serum IgG anti-KLH antibody titer at 50 ug, IM co-administered with KLH-antigen on day 0,7 and 14 and measured on day 14,28 and 42 by ELISA method. Type of data set: functional, organism-based. The settings on record: dose 50.0 µg, time 42.0 day.

For data set [18], the system named is Mus musculus. As to the kind of experiment: Adjuvant activity in OVA-immunized female C57BL/6 mouse assessed as increase in IgG antibody titer at 50 ug, IM co-administered with OVA antigen on day 0,7 and 14 and measured on day 14,28,42 by ELISA method. Type of data set: functional, organism-based. The conditions noted are these: dose 50.0 µg, time 42.0 day.

The test system of data set [19] is Mus musculus. As to the kind of experiment: Adjuvant activity in OVA-immunized female C57BL/6 mouse assessed as increase in IgG2b antibody titer at 50 ug, IM co-administered with OVA antigen on day 0,7 and 14 and measured on day 14,28,42 by ELISA method. Type of data set: functional, organism-based. The conditions noted are these: dose 50.0 µg, time 42.0 day.

Data set [20] can be described thus: Toxicity in C57BL/6 mouse assessed as effect on body weight change at 50 ug, sc in presence of OVA-antigen measured upto 7 days. Type of data set: organism-based. The conditions noted are these: in vivo, 168 h, dose 50 µg, time < 7 day.
Data set [21] deals with Mus musculus. As to the kind of experiment: Adjuvant activity in OVA-immunized female C57BL/6 mouse assessed as increase IgG antibody titer at 50 ug, sc co-administered with OVA antigen on day 0,7 and 14 and measured on day 14,28,42 by ELISA method. The conditions noted are these: dose 50.0 µg, time 42.0 day. Type of data set: functional, organism-based.
Data set [22] relates to Mus musculus. As to the kind of experiment: Adjuvant activity in OVA-immunized female C57BL/6 mouse assessed as increase IgG2b antibody titer at 50 ug, sc co-administered with OVA antigen on day 0,7 and 14 and measured on day 14,28,42 by ELISA method. Type of data set: functional, organism-based. The conditions noted are these: dose 50.0 µg, time 42.0 day.

Consider `C[C@@H]1O[C@@H](O[C@H]2[C@H](OC(=O)[C@]34CCC(C)(C)C[C@H]3C3=CC[C@@H]5[C@@]6(C)CC[C@H](O)[C@@](C)(C=O)[C@@H]6CC[C@@]5(C)[C@]3(C)CC4)O[C@H](CO)[C@H](NC(=O)CCCCCCCCCCCCCCC(=O)O)[C@@H]2O)[C@H](O)[C@H](O)[C@H]1O[C@@H]1OC[C@@H](O)[C@H](O)[C@H]1O`, for which the outcome in data set [1], in data set [2], in data set [3], in data set [4], in [5] and in [6] was Active. The result in data set [7], in data set [8], in data set [12], in data set [13], in data set [15] and in [16] was Active. The Activity result in data set [9], in data set [11] and in data set [14] was “Non-toxic” in each case. Besides, the “fold change (FC)” value in [10] was 10.

In the case of `C[C@@H]1O[C@@H](O[C@H]2[C@H](OC(=O)[C@]34CCC(C)(C)C[C@H]3C3=CC[C@@H]5[C@@]6(C)CC[C@H](O)[C@@](C)(C=O)[C@@H]6CC[C@@]5(C)[C@]3(C)CC4)O[C@H](CO)[C@H](NC(=O)CCCCCCCCCCCCC(=O)O)[C@@H]2O)[C@H](O)[C@H](O)[C@H]1O[C@@H]1OC[C@@H](O)[C@H](O)[C@H]1O`, the result in data set [1], in data set [2], in data set [3], in [4], in data set [5] and in [17] was Active. Further, the outcome in data set [18], in [19], in data set [21] and in data set [22] was Active. The Activity result in data set [9], in [11] and in data set [20] was “Non-toxic” throughout.

With `C[C@@H]1O[C@@H](O[C@H]2[C@H](OC(=O)[C@]34CCC(C)(C)C[C@H]3C3=CC[C@@H]5[C@@]6(C)CC[C@H](O)[C@@](C)(C=O)[C@@H]6CC[C@@]5(C)[C@]3(C)CC4)O[C@H](CO)[C@H](NC(=O)CCCCCCCCCCC(=O)O)[C@@H]2O)[C@H](O)[C@H](O)[C@H]1O[C@@H]1OC[C@@H](O)[C@H](O)[C@H]1O`, the Activity entry in data set [20] is recorded as “Non-toxic”. Also, the result in data set [21] and in [22] was Active.

In the case of `CC1(C)CC[C@]2(C(=O)O[C@@H]3O[C@H](CO)[C@@H](O)[C@H](O[C@@H]4O[C@H](CO)[C@@H](O)[C@H](O[C@@H]5O[C@H](CO)[C@@H](O)[C@H](O[C@@H]6O[C@H](CO)[C@@H](O)[C@H](O[C@@H]7O[C@H](CO)[C@@H](O)[C@H](O)[C@H]7O)[C@H]6O)[C@H]5O)[C@H]4O)[C@H]3O)[C@H](O)C[C@]3(C)C(=CC[C@@H]4[C@@]5(C)CC[C@H](O[C@@H]6O[C@H](CO)[C@@H](O)[C@H](O[C@@H]7O[C@H](CO)[C@@H](O)[C@H](O[C@@H]8O[C@H](CO)[C@@H](O)[C@H](O)[C@H]8O)[C@H]7O)[C@H]6O)[C@@](C)(C=O)[C@@H]5CC[C@]43C)[C@@H]2C1`, the result in data set [15] and in data set [16] was Active.
